Assay results: ChEMBL document CHEMBL5212743, “Selectivity Literature for EUbOPEN Chemogenomics Library wave 3” (2023)

Assays:
[1] = molecular target: T1, Ephrin type-B receptor 6 (Homo sapiens) (UniProt O15197); experiment: Selectivity interaction (KinomeScan (Eurofins)) EUB0000250b EPHB6; conditions: at 1 µM
T1 sequence (whole entry): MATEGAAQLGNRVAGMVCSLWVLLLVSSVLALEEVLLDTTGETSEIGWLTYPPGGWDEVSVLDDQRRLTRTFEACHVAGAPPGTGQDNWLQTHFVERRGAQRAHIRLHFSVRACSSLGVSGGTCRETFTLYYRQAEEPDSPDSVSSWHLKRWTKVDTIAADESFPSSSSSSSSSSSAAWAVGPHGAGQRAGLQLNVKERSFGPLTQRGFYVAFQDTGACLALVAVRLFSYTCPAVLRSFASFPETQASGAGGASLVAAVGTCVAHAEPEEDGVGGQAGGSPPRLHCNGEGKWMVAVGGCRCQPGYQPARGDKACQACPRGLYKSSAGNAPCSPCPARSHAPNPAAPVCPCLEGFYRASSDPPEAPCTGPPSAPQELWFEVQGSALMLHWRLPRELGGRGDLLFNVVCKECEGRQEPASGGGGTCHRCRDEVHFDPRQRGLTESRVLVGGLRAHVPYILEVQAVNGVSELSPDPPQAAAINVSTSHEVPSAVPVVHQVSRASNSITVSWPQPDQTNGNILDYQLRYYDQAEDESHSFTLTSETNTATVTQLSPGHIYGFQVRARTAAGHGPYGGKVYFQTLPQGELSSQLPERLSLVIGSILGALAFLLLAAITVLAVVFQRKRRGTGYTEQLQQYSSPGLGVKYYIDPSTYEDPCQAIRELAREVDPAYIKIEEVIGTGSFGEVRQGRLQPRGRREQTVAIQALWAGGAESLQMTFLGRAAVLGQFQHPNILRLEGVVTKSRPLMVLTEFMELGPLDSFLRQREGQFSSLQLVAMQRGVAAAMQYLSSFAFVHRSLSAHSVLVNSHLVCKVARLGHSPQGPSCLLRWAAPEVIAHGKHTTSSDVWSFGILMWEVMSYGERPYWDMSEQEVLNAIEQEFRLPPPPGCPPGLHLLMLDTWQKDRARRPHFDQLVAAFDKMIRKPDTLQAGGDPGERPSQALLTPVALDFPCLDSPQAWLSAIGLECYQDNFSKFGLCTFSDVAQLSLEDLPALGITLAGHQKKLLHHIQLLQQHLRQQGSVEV

[2] = molecular target: Epidermal growth factor receptor (Homo sapiens, UniProt P00533); experiment: Selectivity interaction (KinomeScan (DiscoverX)) EUB0000250b EGFR; conditions: at 1 µM
Chain of Epidermal growth factor receptor (P00533 whole entry): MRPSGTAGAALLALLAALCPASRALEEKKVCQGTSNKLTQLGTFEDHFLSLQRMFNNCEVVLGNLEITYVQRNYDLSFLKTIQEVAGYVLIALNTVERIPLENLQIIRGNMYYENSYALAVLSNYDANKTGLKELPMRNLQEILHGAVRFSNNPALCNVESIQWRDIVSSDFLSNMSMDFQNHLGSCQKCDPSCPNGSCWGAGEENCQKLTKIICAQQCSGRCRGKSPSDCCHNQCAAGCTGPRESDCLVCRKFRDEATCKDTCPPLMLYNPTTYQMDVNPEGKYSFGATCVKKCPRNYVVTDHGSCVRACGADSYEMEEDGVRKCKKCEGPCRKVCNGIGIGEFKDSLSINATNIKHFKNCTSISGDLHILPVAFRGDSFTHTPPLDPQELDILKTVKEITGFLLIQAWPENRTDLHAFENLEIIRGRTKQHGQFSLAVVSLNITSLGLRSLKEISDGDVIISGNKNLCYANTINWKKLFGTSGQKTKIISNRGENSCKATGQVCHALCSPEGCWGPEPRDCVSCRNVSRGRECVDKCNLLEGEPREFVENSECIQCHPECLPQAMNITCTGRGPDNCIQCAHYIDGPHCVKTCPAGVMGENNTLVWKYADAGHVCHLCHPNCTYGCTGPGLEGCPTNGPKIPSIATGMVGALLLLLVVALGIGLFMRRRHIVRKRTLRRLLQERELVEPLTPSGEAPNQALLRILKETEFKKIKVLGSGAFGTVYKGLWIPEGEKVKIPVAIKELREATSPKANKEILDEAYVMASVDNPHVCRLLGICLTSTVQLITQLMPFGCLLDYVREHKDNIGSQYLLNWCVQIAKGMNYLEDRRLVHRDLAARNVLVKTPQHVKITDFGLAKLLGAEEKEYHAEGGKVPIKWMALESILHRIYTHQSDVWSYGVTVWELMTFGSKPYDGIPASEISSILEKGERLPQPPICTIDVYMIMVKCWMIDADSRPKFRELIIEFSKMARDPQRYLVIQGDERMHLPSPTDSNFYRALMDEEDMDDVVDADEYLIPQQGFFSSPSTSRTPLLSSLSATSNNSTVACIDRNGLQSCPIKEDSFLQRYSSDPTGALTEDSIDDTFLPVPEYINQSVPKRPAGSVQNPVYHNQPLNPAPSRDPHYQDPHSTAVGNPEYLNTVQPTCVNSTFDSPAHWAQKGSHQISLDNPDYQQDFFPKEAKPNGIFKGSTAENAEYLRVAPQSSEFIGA

[3] = molecular target: Leukocyte tyrosine kinase receptor (Homo sapiens, UniProt P29376); experiment: Selectivity interaction (KinomeScan (DiscoverX)) EUB0000250b LTK; conditions: at 1 µM
Chain of Leukocyte tyrosine kinase receptor (P29376 whole entry): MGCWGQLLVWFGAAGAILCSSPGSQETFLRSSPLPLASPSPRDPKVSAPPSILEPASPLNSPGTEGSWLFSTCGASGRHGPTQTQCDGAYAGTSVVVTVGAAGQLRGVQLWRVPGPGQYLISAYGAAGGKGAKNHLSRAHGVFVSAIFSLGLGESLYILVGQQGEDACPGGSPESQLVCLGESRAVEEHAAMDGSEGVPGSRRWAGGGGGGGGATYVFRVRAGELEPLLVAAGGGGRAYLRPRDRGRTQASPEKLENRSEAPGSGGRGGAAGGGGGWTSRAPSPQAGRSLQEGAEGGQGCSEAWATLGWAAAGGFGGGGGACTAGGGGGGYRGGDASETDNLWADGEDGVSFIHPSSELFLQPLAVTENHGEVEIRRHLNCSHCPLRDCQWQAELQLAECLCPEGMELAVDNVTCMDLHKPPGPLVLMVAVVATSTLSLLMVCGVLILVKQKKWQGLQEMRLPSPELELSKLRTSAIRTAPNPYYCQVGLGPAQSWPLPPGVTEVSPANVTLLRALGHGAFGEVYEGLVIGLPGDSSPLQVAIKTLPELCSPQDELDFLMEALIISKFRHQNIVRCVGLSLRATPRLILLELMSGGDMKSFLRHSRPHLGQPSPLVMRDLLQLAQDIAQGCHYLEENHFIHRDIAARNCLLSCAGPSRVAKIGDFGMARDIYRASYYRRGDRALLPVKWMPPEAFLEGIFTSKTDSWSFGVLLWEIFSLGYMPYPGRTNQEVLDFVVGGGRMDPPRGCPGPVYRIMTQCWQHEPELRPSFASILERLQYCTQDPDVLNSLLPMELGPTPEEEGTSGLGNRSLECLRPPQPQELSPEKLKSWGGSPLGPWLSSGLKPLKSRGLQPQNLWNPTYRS

[4] = molecular target: Ephrin type-A receptor 5 (Homo sapiens) (UniProt P54756); experiment: Selectivity interaction (KinomeScan (Eurofins)) EUB0000250b EPHA5; conditions: at 1 µM
Chain of Ephrin type-A receptor 5 (Homo sapiens) (P54756 whole entry): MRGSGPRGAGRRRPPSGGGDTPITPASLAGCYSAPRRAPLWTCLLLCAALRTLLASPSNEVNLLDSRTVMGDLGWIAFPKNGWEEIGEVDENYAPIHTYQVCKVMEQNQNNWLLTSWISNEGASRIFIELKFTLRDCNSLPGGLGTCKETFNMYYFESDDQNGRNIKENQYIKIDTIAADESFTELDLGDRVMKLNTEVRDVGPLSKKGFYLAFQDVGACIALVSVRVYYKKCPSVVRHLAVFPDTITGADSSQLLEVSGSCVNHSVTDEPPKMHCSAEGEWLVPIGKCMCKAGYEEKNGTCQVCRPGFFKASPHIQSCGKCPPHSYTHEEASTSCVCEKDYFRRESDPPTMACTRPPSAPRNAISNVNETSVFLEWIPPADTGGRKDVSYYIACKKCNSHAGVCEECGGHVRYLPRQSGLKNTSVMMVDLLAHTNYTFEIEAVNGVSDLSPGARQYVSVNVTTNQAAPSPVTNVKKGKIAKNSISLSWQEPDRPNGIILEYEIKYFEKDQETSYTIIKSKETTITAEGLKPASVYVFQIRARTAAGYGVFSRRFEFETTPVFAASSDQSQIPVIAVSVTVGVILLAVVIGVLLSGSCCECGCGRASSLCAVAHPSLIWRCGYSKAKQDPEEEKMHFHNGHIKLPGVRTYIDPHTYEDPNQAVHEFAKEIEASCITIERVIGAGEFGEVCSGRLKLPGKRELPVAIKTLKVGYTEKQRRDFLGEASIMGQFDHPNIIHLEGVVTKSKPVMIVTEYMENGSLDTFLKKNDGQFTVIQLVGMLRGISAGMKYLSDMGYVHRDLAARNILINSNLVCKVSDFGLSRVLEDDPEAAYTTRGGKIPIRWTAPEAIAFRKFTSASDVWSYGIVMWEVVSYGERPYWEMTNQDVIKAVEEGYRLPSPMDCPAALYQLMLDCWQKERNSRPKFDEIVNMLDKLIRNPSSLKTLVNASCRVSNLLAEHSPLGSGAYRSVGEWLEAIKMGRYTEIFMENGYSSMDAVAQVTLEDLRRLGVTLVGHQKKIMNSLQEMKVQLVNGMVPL

[5] = molecular target: Tyrosine-protein kinase Fer (Homo sapiens, UniProt P16591); experiment: Selectivity interaction (KinomeScan (Eurofins)) EUB0000250b FER; conditions: at 1 µM
Chain of Tyrosine-protein kinase Fer (P16591 whole entry, looked up): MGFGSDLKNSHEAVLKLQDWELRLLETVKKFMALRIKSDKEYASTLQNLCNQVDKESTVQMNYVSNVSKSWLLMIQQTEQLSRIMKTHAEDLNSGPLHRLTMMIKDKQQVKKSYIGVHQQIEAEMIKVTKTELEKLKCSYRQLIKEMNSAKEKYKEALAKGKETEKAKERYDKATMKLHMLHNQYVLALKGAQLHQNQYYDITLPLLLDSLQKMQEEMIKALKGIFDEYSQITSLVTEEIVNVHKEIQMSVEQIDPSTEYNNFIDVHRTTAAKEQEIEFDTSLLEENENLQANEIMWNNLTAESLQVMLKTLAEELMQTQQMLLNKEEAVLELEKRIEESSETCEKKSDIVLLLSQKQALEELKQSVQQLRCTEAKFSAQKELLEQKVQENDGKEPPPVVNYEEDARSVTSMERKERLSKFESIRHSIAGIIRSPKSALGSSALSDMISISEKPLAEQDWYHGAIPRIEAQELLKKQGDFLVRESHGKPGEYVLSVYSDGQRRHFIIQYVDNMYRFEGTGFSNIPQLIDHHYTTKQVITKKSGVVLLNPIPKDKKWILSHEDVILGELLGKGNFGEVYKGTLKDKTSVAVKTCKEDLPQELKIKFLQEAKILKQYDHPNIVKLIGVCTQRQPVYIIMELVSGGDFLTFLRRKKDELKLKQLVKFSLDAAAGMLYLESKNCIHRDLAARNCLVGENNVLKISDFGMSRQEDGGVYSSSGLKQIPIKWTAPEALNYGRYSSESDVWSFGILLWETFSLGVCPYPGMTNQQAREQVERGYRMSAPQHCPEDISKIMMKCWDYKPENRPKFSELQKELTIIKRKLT

[6] = molecular target: Ephrin type-B receptor 3 (Homo sapiens) (UniProt P54753); experiment: Selectivity interaction (KinomeScan (Eurofins)) EUB0000250b EPHB3; conditions: at 1 µM
[7] = molecular target: Dual specificity tyrosine-phosphorylation-regulated kinase 1B (Homo sapiens, UniProt Q9Y463); experiment: Selectivity interaction (KinomeScan (DiscoverX)) EUB0000738a DYRK1B; conditions: at 1 µM
[8] = molecular target: T2, Phosphatidylinositol 5-phosphate 4-kinase type-2 beta (Homo sapiens) (UniProt P78356); experiment: Selectivity interaction (KinomeScan (DiscoverX)) EUB0000738a PIP4K2B; conditions: at 1 µM
T2 sequence (whole entry): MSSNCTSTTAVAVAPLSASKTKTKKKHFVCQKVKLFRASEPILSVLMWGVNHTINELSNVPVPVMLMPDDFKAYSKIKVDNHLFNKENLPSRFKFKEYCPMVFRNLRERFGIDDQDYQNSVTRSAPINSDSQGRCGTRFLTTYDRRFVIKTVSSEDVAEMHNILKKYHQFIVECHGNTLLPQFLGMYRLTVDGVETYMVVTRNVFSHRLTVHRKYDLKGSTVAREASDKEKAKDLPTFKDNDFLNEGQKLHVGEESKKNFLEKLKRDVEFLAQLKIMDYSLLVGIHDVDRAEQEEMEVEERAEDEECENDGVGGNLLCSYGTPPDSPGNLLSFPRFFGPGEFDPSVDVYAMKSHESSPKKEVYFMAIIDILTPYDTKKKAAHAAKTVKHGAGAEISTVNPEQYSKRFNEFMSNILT

[9] = molecular target: Kappa-type opioid receptor (Homo sapiens, UniProt P41145); experiment: Selectivity interaction (SafetyScreen44™ (Eurofins, ion channels, GPCRs, hydrolases, and other enzymes)) EUB0000282b OPRK1; conditions: at 10 µM
Nischarin (Homo sapiens) = Nischarin (Homo sapiens) (UniProt Q9Y2I1); experiment: Selectivity interaction (MDS Pharma Service panel (GPCR, ion channels, receptors, and other enzymes, radioligand binding assays)) EUB0000294b NISCH; conditions: at 10 µM
[10] = molecular target: NT-3 growth factor receptor (Homo sapiens, UniProt Q16288); experiment: Selectivity interaction (KinomeScan (DiscoverX)) EUB0000294b NTRK3; conditions: at 1 µM
[11] = molecular target: T3, Dual specificity mitogen-activated protein kinase kinase 5 (Homo sapiens) (UniProt Q13163); experiment: Selectivity interaction (KinomeScan (DiscoverX)) EUB0000294b MAP2K5; conditions: at 1 µM
T3 sequence (whole entry): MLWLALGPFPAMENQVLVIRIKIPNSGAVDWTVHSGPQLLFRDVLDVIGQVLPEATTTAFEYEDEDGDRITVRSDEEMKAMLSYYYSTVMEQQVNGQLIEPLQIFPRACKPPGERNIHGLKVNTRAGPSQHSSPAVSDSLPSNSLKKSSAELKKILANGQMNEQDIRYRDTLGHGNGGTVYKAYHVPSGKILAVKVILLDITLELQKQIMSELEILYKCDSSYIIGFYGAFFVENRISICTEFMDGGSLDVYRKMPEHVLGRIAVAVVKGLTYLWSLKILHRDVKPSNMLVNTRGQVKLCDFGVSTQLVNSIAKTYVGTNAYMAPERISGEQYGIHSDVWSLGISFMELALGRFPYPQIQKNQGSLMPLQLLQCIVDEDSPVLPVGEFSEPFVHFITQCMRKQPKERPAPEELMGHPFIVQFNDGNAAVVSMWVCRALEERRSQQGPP

[12] = molecular target: Aurora kinase A (Homo sapiens) (UniProt O14965); experiment: Selectivity interaction (KinomeScan (DiscoverX)) EUB0000294b STK6; conditions: at 1 µM
[13] = molecular target: T4, Serine/threonine-protein kinase LATS1 (Homo sapiens) (UniProt O95835); experiment: Selectivity interaction (KinomeScan (DiscoverX)) EUB0000294b LATS1; conditions: at 1 µM
T4 sequence (whole entry): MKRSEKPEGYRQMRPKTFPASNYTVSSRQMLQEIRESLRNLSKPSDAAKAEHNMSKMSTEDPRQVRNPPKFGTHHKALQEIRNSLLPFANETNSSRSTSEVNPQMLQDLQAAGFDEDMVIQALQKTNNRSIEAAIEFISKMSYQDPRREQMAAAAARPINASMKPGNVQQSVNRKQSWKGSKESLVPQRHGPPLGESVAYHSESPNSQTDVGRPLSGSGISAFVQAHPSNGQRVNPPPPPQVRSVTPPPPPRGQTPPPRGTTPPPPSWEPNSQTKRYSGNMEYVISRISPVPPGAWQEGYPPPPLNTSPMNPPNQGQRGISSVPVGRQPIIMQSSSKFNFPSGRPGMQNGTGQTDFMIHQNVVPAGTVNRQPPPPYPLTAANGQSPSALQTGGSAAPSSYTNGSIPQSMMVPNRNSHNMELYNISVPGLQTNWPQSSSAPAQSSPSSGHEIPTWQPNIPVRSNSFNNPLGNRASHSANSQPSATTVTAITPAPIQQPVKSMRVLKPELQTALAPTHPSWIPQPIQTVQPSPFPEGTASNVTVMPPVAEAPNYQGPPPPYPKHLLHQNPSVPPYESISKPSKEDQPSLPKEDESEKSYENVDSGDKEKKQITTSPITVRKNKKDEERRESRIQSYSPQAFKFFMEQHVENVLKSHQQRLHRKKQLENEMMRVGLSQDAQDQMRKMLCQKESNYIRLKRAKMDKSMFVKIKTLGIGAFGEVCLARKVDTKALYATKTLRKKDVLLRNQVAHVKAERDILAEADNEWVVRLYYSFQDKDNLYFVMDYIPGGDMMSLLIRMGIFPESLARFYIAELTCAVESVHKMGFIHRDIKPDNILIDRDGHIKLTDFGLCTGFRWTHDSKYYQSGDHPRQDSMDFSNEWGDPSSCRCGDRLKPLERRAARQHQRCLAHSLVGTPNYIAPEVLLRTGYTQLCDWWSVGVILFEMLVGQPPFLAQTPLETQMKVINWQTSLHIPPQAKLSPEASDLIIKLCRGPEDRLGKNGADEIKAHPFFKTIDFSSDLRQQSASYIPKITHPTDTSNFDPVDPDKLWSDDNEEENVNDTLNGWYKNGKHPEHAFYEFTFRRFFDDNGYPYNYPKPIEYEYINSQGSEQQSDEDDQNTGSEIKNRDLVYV

[14] = molecular target: Sodium-dependent dopamine transporter (Homo sapiens, UniProt Q01959); experiment: Selectivity interaction (GPCR panel (PDSP screen)) EUB0000294b SLC6A3; conditions: at 10 µM
Chain of Sodium-dependent dopamine transporter (Q01959 whole entry): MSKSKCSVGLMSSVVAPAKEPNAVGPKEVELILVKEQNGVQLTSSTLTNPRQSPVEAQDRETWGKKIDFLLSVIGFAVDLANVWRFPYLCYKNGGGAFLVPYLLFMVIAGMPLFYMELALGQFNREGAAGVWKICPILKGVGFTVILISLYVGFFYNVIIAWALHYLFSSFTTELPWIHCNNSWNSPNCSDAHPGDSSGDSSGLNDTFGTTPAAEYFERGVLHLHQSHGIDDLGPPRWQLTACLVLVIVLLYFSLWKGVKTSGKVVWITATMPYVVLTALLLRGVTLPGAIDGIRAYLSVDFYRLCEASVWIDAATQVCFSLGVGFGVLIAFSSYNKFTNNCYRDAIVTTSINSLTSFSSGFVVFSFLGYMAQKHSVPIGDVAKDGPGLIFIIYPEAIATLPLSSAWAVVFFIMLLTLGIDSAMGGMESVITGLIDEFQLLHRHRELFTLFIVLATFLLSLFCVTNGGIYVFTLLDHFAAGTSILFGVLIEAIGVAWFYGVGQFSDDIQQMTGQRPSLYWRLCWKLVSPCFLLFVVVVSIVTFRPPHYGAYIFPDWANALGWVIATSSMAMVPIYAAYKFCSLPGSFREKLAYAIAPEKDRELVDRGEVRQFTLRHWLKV

[15] = molecular target: Dual specificity protein kinase CLK4 (Homo sapiens) (UniProt Q9HAZ1); experiment: Selectivity interaction (KinomeScan (DiscoverX)) EUB0000347a CLK4; conditions: at 1 µM
[16] = molecular target: 5'-AMP-activated protein kinase catalytic subunit alpha-1 (Homo sapiens, UniProt Q13131); experiment: Selectivity interaction (KinomeScan (DiscoverX)) EUB0000347a PRKAA1; conditions: at 1 µM
[17] = molecular target: Cyclin-dependent kinase 5 (Homo sapiens) (UniProt Q00535); experiment: Selectivity interaction (KinomeScan (DiscoverX)) EUB0000347a CDK5; conditions: at 1 µM
[18] = molecular target: T5, Mitogen-activated protein kinase kinase kinase 13 (Homo sapiens) (UniProt O43283); experiment: Selectivity interaction (KinomeScan (DiscoverX)) EUB0000347a MAP3K13; conditions: at 1 µM
T5 sequence (whole entry): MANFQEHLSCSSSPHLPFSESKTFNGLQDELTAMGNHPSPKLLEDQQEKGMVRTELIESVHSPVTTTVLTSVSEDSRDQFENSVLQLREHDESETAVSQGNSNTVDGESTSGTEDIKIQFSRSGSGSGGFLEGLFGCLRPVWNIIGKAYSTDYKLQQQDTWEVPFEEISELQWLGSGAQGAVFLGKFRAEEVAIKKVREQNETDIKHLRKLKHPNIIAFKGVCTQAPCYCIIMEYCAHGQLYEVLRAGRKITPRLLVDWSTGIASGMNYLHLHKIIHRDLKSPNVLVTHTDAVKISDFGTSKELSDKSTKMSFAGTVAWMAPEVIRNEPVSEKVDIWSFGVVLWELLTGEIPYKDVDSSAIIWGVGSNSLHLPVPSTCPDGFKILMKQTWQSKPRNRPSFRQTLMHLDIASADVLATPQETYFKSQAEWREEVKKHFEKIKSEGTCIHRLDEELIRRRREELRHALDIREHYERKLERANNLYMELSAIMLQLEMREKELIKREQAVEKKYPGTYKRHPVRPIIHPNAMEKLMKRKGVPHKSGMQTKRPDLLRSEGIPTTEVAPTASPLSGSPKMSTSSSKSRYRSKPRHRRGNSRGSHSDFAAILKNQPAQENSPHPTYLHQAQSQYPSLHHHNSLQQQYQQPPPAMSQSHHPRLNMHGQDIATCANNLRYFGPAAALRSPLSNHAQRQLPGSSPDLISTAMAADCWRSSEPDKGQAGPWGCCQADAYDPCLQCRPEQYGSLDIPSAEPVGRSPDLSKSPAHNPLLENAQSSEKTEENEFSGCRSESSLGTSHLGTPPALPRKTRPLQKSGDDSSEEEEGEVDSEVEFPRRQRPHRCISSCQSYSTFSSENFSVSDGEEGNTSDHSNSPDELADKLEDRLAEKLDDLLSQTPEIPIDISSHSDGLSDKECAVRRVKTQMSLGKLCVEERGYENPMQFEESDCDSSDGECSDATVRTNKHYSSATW

[19] = molecular target: Cyclin-dependent kinase-like 2 (Homo sapiens) (UniProt Q92772); experiment: Selectivity interaction (KinomeScan (DiscoverX)) EUB0000240b CDKL2; conditions: at 1 µM
Chain of Cyclin-dependent kinase-like 2 (Homo sapiens) (Q92772 whole entry): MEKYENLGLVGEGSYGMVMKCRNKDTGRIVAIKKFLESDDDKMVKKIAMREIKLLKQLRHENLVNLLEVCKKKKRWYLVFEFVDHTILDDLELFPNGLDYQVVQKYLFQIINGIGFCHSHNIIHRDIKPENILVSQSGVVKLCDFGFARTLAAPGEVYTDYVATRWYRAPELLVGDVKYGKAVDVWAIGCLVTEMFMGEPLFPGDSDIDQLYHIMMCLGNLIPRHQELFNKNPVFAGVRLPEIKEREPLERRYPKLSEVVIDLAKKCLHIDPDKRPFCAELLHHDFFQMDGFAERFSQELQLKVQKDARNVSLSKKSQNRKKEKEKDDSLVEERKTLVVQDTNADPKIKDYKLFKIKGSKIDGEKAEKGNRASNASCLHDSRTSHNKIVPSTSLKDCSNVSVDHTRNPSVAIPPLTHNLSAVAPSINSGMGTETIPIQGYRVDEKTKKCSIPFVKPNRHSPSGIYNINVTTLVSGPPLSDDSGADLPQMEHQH

CN1CCN(c2cnc3c(C4CCN(C(=O)c5ccc(OC(F)(F)F)cc5N)CC4)ncnc3c2)CC1
% of control [1]: 18% | % of control [2]: 38% | % of control [3]: 49% | % of control [4]: 57% | % of control [5]: 38% | % of control [6]: 42%

CCC(=O)N[C@@H]1CC[C@H](C(=O)N(C)c2ccc(-c3nc4ccccc4o3)cc2)C1
% of control [7]: 36% | % of control [8]: 45%

O=C(NCc1ccc(F)cc1)C1CCN(S(=O)(=O)c2cc(Cl)cc(Cl)c2)CC1
% of control [9]: 19%

CCC(=O)N[C@H]1CC[C@@H](C(=O)N(C)c2ccc(-c3nc4ccccc4o3)cc2)C1
% of inhibition (Nischarin (Homo sapiens)): 19% | % of control [10]: 32% | % of control [11]: 16% | % of control [12]: 43% | % of control [13]: 48% | % of inhibition [14]: 77%

O=C(NCc1ncc(C(F)(F)F)cc1Cl)c1ccc2c(c1)C1(CCS(=O)(=O)CC1)[C@H](C1CC1)N2S(=O)(=O)c1ccc(F)cc1
% of control [15]: 0% | % of control [16]: 39% | % of control [17]: 0% | % of control [18]: 0%

O=C(Nc1cnc(Oc2ccc(F)cc2)nc1)N1CCc2ncccc2[C@@H]1c1ccc(F)cc1
% of control [19]: 33%
